Data published in patent publication US20050089516A1, “Skin vitalizing composition for external use anti-aging preparation” (SHISEIDO COMPANY, LTD., priority 2002, published 2005).

Legend:
[1] = system: basement membrane structure directly under the epidermis; assay: Transmission electron microscopy of artificial skin; assay type: cell-based, human; settings: Example 1; 10 μM compound A, with or without 10 μg/ml aprotinin
Protocol: (§1) Collagen gel was obtained by preparing 10 ml of a human dermal fibroblasts (0.3-1×10^5 cell/ml)-suspended collagen solution (using I-AC collagen manufactured by Koken Co., Ltd.) on ice, followed by gelling the collagen in a 60 mm Petri dish at 37° C. The gel was then peeled from the bottom of the dish, the collagen gel was placed on metal, and a glass ring (12 mm inner diameter) was placed over the gel. A 0.4 ml portion of a human foreskin-derived epidermal keratinocyte (1×10^6/ml) suspension (KGM-DMEM (1:1) mixed medium containing 5% fetal bovine serum) was poured into the glass ring while avoiding leakage. The keratinocytes were allowed to adhere in a CO2 incubator overnight, and the ring was removed on the following day. The medium was filled in up to the border of the epidermal layer, and culturing was continued while exposing the epidermal layer to the air, to prepare a multilayered skin model with epidermis having a horny layer. […]

type VII collagen = assay: Artificial skin culture, immunostaining with anti-type VII collagen antibody; assay type: cell-based, human; settings: Example 1; culturing for 2 weeks; 10 μM compound A, 10 μg/ml aprotinin, 1 ng/ml interleukin-1β, 1 ng/ml TGF-α, 100 ng/ml PDGF; versus no-compound control
Protocol: as §1

COc1ccc(S(=O)(=O)N(Cc2cccnc2)C(C(=O)NO)C(C)C)cc1.Cl (centres unmarked) [compound A]
basement membrane structure by transmission electron microscope [1]: induced formation of the basement membrane
staining of type VII collagen directly under the basal keratinocytes (type VII collagen): weak but definite staining
